These results are taken from patent US12516051B1, “Small molecule degraders and fluorescent probes of PXR” (St. Jude Children's Research Hospital, Inc., priority 2024, dated 2026).

The term CC50 denotes the concentration giving 50% cytotoxicity.

Where two headings read alike, the source gives them in different places.

In this data set the test system is SNU-C4 HiBiT-PXR KI cells. The data set can be described thus: Cytotoxicity, CellTiter-Glo Luminescent Cell Viability Assay. Format: cell-based. The protocol:
An Echo 655T Acoustic Liquid Handler was used to dispense 75 nL/well of DMSO or PROTAC dilution into white tissue culture-treated 384-well plates. For 24 h cytotoxicity, 25 μL assay media containing 1×10^4 cells was added to each well to match the conditions for the degradation assays. For 72 h cytotoxicity, 25 μL RPMI with 10% FBS containing 2.5×10^3 cells was added to each well to match normal growth conditions. […] After 24 h or 72 h, the CellTiter-Glo Luminescent Cell Viability Assay (Promega, cat. #G7572) and an EnVision microplate reader were used to assess cytotoxicity. DMSO wells with cells served as positive controls, and wells without cells served as negative controls. The percent cell viability for each well was calculated using equation 5,
A general note: ATP-based viability assays read luminescence as a measure of living cells.

The mark [1] stands for this setting: read-out: 24 h CC50, Table 3, 24 h treatment.
The mark [2] stands for this setting: read-out: 72 h CC50, Table 3, 72 h treatment.
Where [3] appears, read: read-out: 24 h CC50, Table 4, 24 h treatment.
The mark [4] stands for this setting: read-out: 72 h CC50, Table 4, 72 h treatment.

In the case of `COc1cc(OCCCCCCOCCOCCOCCCCCC(=O)N[C@H](C(=O)N2C[C@H](O)C[C@H]2C(=O)NCc2ccc(-c3scnc3C)cc2)C(C)(C)C)c(C)cc1-n1nnc(S(=O)(=O)c2ccc(C(C)(C)C)cc2)c1C` [Compound 33, (2S,4R)-1-((S)-2-(tert-Butyl)-22-(4-(4-((4-(tert-butyl)phenyl)sulfonyl)-5-methyl-1H-1,2,3-triazol-1-yl)-5-methoxy-2-methylphenoxy)-4-oxo-10,13,16-trioxa-3-azadocosanoyl)-4-hydroxy-N-(4-(4-methylthiazol-5-yl)benzyl)pyrrolidine-2-carboxamide], the half-maximal cytotoxic concentration (CC50) reads like this: under setting [1], over 30 µM; under setting [2], over 30 µM.
As for `COc1cc(OCCCCCCOCCOCCOCCOCCOCCOCC(=O)N[C@H](C(=O)N2C[C@H](O)C[C@H]2C(=O)NCc2ccc(-c3scnc3C)cc2)C(C)(C)C)c(C)cc1-n1nnc(S(=O)(=O)c2ccc(C(C)(C)C)cc2)c1C` [Compound 34, (2S,4R)-1-((S)-2-(tert-Butyl)-27-(4-(4-((4-(tert-butyl)phenyl)sulfonyl)-5-methyl-1H-1,2,3-triazol-1-yl)-5-methoxy-2-methylphenoxy)-4-oxo-6,9,12,15,18,21-hexaoxa-3-azaheptacosanoyl)-4-hydroxy-N-(4-(4-methylthiazol-5-yl)benzyl)pyrrolidine-2-carboxamide], the cytotoxic concentration (CC50) under setting [1] is over 30 µM and the CC50 under setting [2] was over 30 µM.
As to `CCCCOc1ccc(C(C)(C)C)cc1NC(=O)c1nnn(-c2cc(C)c(OCCCCCCOCCOCC(=O)N[C@H](C(=O)N3C[C@H](O)C[C@H]3C(=O)NCc3ccc(-c4scnc4C)cc3)C(C)(C)C)cc2OC)c1C` [Compound 35, N-(2-Butoxy-5-(tert-butyl)phenyl)-1-(4-((6-(2-(2-(((S)-1-((2S,4R)-4-hydroxy-2-((4-(4-methylthiazol-5-yl)benzyl)carbamoyl)pyrrolidin-1-yl)-3,3-dimethyl-1-oxobutan-2-yl)amino)-2-oxoethoxy)ethoxy)hexyl)oxy)-2-methoxy-5-methylphenyl)-5-methyl-1H-1,2,3-triazole-4-carboxamide], the CC50 is over 30 µM under setting [3] and over 30 µM under setting [4].
With `CCC[C@H](CC)Oc1ccc(C(C)(C)C)cc1NC(=O)c1nnn(-c2cc(C)c(OCCCCCCOCCOCC(=O)N[C@H](C(=O)N3C[C@H](O)C[C@H]3C(=O)NCc3ccc(-c4scnc4C)cc3)C(C)(C)C)cc2OC)c1C` [Compound 36], the CC50 by setting is: under setting [3], over 30 µM; under setting [4], over 30 µM.
On to `CCC[C@H](CC)Oc1ccc(C(C)(C)C)cc1NC(=O)c1nnn(-c2cc(OC)c(OCCCCCCOCCOCC(=O)N[C@H](C(=O)N3C[C@H](O)C[C@H]3C(=O)NCc3ccc(-c4scnc4C)cc3)C(C)(C)C)cc2OC)c1C` [Compound 37, N-(5-(TERT-BUTYL)-2-(((S)-HEXAN-3-YL)OXY)PHENYL)-1-(4-((6-(2-(2-(((S)-1-((2S,4R)-4-HYDROXY-2-((4-(4 METHYLTHIAZOL-5-YL)BENZYL)CARBAMOYL)PYRROLIDIN-1-YL)-3,3-DIMETHYL-1-OXOBUTAN-2-YL)AMINO)-2 OXOETHOXY)ETHOXY)HEXYL)OXY)-2,5-DIMETHOXYPHENYL)-5-METHYL-1H-1,2,3-TRIAZOLE-4-CARBOXAMIDE], for which the half-maximal cytotoxic concentration (CC50) by setting is: under setting [3], over 30 µM; under setting [4], over 30 µM.
`CCC[C@H](CC)Oc1ccc(C(=O)OC)cc1NC(=O)c1nnn(-c2cc(OC)c(OCCCCCCOCCOCC(=O)N[C@H](C(=O)N3C[C@H](O)C[C@H]3C(=O)NCc3ccc(-c4scnc4C)cc3)C(C)(C)C)cc2OC)c1C` [Compound 38, METHYL 4-(((S)-HEXAN-3-YL)OXY)-3-(1-(4-((6-(2-(2-(((S)-1-((2S,4R)-4-HYDROXY-2-((4-(4-METHYLTHIAZOL-5-YL)BENZYL)CARBAMOYL)PYRROLIDIN-1-YL)-3,3-DIMETHYL-1-OXOBUTAN-2-YL)AMINO)-2-OXOETHOXY)ETHOXY)HEXYL)OXY)-2,5-DIMETHOXYPHENYL)-5-METHYL-1H-1,2,3-TRIAZOLE-4-CARBOXAMIDO)BENZOATE]: the 50% cytotoxic concentration (CC50) was over 30 µM under setting [3] and over 30 µM under setting [4].
